PMC10892836, “Hybrid Molecules of Azithromycin with Chloramphenicol and Metronidazole: Synthesis and Study of Antibacterial Properties” (Pharmaceuticals, 2024)
≈ marks a conversion by molar mass, not a printed value. Where “and” joins values, the source holds several entries; their conditions need not be identical. Identical values can stand only once.

How the values were obtained:
[1] = test system: Escherichia coli ATCC 25922; assay: MIC, broth microdilution (CLSI); type: cell-based; details: ATCC25922, E. coli ATCC 25922
Experimental: (§1) Minimum inhibitory concentration (MIC) values for facultative anaerobic bacteria were determined using the broth microdilution method outlined in the CLSI guidelines. Initially, all compounds were dissolved in dimethyl sulfoxide (DMSO) to achieve a concentration of 10 mg/mL. Subsequently, they were diluted with the Mueller–Hinton nutrient broth (MHB) supplemented with 5% defibrinated horse blood (for Streptococcus spp.) to a concentration of 64 μg/mL. Following 2-fold serial dilutions of the substances, bacterial cultures in the log growth phase were added to 96-well plates at a concentration of 2.5–5 × 10^5 CFU/mL, and the plates were incubated at 37 °C for 16–20 h.
(§2) Minimum inhibitory concentration (MIC) was defined as the lowest concentration of a chemical compound that inhibits the visible growth of the bacterial strain. At least three replicates of MIC measurements were performed.

[2] = test system: Staphylococcus aureus ATCC 29213; assay: MIC, broth microdilution (CLSI); type: cell-based; details: ATCC29213, S. aureus ATCC 29213
Experimental: as §1, §2

[3] = test system: Streptococcus pneumoniae ATCC 49619; assay: MIC, broth microdilution (CLSI); type: cell-based; details: ATCC49619, S. pneumoniae ATCC 49619, Tables 2 and 3
Experimental: as §1, §2

E. coli ΔtolC pERMZα = assay: MIC, broth microdilution, E. coli ΔtolC panel; type: cell-based; details: Escherichia coli
Experimental: (§3) The E. coli ΔtolC strain was also transformed with the pErmC, pErmCL-ErmC, and pERMZα plasmids. The resulting strains were grown at 37 °C in LB medium supplied with 100 μg/mL ampicillin.
(§4) MIC values for a panel of E. coli ΔtolC strains were determined via the broth microdilution assay as described here with minor modifications. Briefly, the overnight E. coli culture was diluted to an OD600 of 0.01 in the fresh LB medium supplied with 100 μg/mL ampicillin, if required. Then, the cells were additionally incubated for 1–1.5 h at 37 °C with shaking at 200 rpm (Shaker-Incubator ES-20/80, BioSan, Riga, Latvia). Meanwhile, 100 μL of the liquid growth medium was placed in each well of a 96-well sterile plate (200 μL was placed in column 1). Solutions of tested compounds were added in the first column of the plate at 2 times the final concentration of 200 μg/mL. Then, 2-fold serial dilutions were performed. Immediately before use, bacterial inoculum was diluted (1:100) in the growth medium, and 100 μL of it was transferred in each well except for the sterility control column. The plate was incubated overnight (16–20 h) at 37 °C with constant shaking at 200 rpm (Shaker-Incubator ES-20/80, BioSan, Riga Latvia). Cell growth was assessed by scanning the OD600 with a VICTOR X5 Multilabel Plate Reader (PerkinElmer, Waltham, MA, USA).
as §2

E. coli ΔtolC pErmC = assay: MIC, broth microdilution, E. coli ΔtolC panel; type: cell-based; details: Escherichia coli
Experimental: as §3, §4, §2

[4] = test system: E. coli ΔtolC pErmCL-ErmC; assay: MIC, broth microdilution, E. coli ΔtolC panel; type: cell-based; details: for MIC: Escherichia coli
Experimental: In order to create the construct pErmCL-ErmC, the vector backbone was amplified using pZa-fwd (5′-TAAGAATTCTCTAGCCCG-3′) and pZa-rev (5′-[…]-3′) primers, and the pERMZα plasmid as a template. The ermC gene was amplified from the pERMCTP plasmid with ErmC-fwd (5′-[…]-3′) and ErmC-rev (5′-TAGGCGGGCTAGAGAATTC-3′) primers. The joining of two DNA fragments was performed using the NEBuilder® HiFi DNA Assembly Master Mix (New England Biolabs, Ipswich, MA, USA). Sequences of intermediate products and the final construct were confirmed by Sanger sequencing with appropriate primers.
as §3, §4, §2

E. coli ΔtolC = assay: MIC, broth microdilution, E. coli ΔtolC panel; type: cell-based; details: for MIC: Escherichia coli
Source text: The E. coli JW5503 strain with a deletion of the tolC gene (referred to here as E. coli ΔtolC) was kindly provided by Prof. Hironori Niki, National Institute of Genetics, Japan. The E. coli BW25113 strain with a partial deletion of the lptD gene, codons 330 to 352 (referred to here as E. coli lptD^mut) was kindly provided by Prof. Alexander S. Mankin, University of Illinois, Chicago, IL, USA [44]. The E. coli ΔtolC strain was transformed with the pDualrep2 (Amp^R) plasmid, whereas the E. coli lptD^mut strain was transformed with the pDualrep2 (Kan^R) plasmid (not yet published). Both E. coli strains were grown at 37 °C in Luria–Bertani (LB) medium supplemented with either 100 μg/mL ampicillin or 50 μg/mL kanamycin.
as §4, §2

[5] = test system: cell-free bacterial translation system based on the E. coli S30 lysate; assay: In vitro translation in a cell-free bacterial system (firefly luciferase synthesis); type: biochemical; details: for Relative luciferase activity (relative maximal rate of Fluc accumulation): final concentration 5 μM, water control = 100%
Experimental: The inhibition of firefly luciferase (Fluc) synthesis by new azithromycin derivatives was assessed with the E. coli S30 Extract System for Linear Templates (Promega, Madison, WI, USA). Each reaction (5 μL total volume) was supplied with 0.1 mM mixture of all canonical amino acids, 4 U of RiboLock RNase Inhibitor (Thermo Fisher Scientific, Waltham, MA, USA), 0.1 mM of D-luciferin (Sigma-Aldrich, Burlington, MA, USA), 50 ng of firefly luciferase (Fluc) mRNA, and a chemical compound at a final concentration, as indicated in the main text, or nuclease-free water instead. Before the addition of mRNA, reaction tubes were pre-incubated at RT for 5 min and then placed back on ice. After the addition of mRNA, reaction mixtures were immediately subjected to continuous chemiluminescence measurement using the VICTOR X5 Multilabel Plate Reader (PerkinElmer, Waltham, MA, USA) at 37 °C for 30 min. Maximal rates of the firefly luciferase (Fluc) accumulation were calculated using the OriginPro 7.5 software. The values were normalized to a positive control (nuclease-free water, assigned a value of 100%). The results were visualized using the QtiPlot software (version 0.9.8.9).

[6] = test system: ribosome stalling on ermCL mRNA; assay: Toe-printing (primer extension inhibition) analysis on ermCL mRNA; type: biochemical; details: 50 μM (chloramphenicol 30 μM)
Experimental: The toe-printing (primer extension inhibition) analysis of azithromycin derivatives was carried out essentially as previously described with some minor modifications, as indicated below. The DNA template ErmCL was generated by PCR using two overlapping primers, ErmCL-fwd (5′-[…]-3′) and ErmCL-rev (5′-[…]-3′). Before the addition of the DNA template to reaction mixtures at the in vitro translation step, tubes were pre-incubated at RT for 5 min. Moreover, phenol-chloroform extraction of reverse transcription products was replaced with DNA purification using the QIAquick® PCR Purification Kit (Qiagen, Hilden, Germany) according to the manufacturer’s protocol.
Figure 4 Toe-printing (or primer extension inhibition) analysis of azithromycin derivatives on ermCL mRNA. Ribosome stalling is detected via reverse transcription in a cell-free bacterial transcription–translation coupled system. The toe-printing bands are marked with colored arrowheads, and the A-site codons (except for the start codon, P-site codon is indicated) occupied by the stalled ribosomes are indicated in the mRNA sequence with the corresponding colors. The stop codon is marked with an asterisk. All compounds but chloramphenicol (CLM) were tested at 50 μM. Chloramphenicol (CLM) was tested at 30 μM. DMSO was used as a negative control at 0.25% final concentration. Thiostrepton (THS) was used to indicate the translation start site.

70S E. coli ribosomes = assay: Competition-binding assay with BODIPY-ERY (fluorescence anisotropy); details: displacement of BODIPY-ERY; means, 95% confidence intervals; read-out: Apparent dissociation constant KD
Experimental: Affinity of compounds to the 70S E. coli ribosomes (isolated from the E. coli MRE600 strain according to a published procedure) was evaluated with a competition-binding assay using fluorescently labeled erythromycin (BODIPY-ERY) as described earlier. Briefly, BODIPY-ERY (16 nM) was mixed with ribosomes (34 nM) in 384-well plates in the buffer containing 20 mM HEPES-KOH (pH 7.5), 50 mM NH4Cl, 10 mM Mg(CH3CO2)2, 4 mM β-mercaptoethanol, and 0.05% (v/v) Tween-20. Solutions of the tested compounds were added to the obtained complexes to final concentrations from 1 to 1000 nM and incubated for 2 h at 30 °C. The values of fluorescence anisotropy were obtained using the VICTOR X5 Multilabel Plate Reader (PerkinElmer, Waltham, MA, USA). Filters of 485 and 535 nm were used for excitation and emission, respectively. To calculate the apparent dissociation constants, the assumption that the competitive equilibrium binding of two ligands occurs at a single binding site was used. For each compound, at least 2 replicates were performed. Values of apparent dissociation constants are given as means with 95% confidence intervals. The results were visualized using the GraphPad Prism software (version 8.0.1).

[7] = test system: Streptococcus agalactiae 1Cp; assay: MIC, broth microdilution (CLSI); type: cell-based; details: S. agalactiae 1Cp, Table 3
Experimental: as §1, §2

[8] = test system: Clostridium sporogenes ATCC 19404; assay: MIC, agar dilution, anaerobic bacteria (CLSI M11-A9); type: cell-based; details: ATCC19404, C. sporogenes ATCC 19404, anaerobic
Experimental: The antimicrobial activity against anaerobic bacteria was evaluated using the agar dilution method in accordance with the CLSI document M11-A9 [58]. Twofold serial dilutions of compounds, at 10 times the desired concentration, were prepared in water and diluted (1:10) with the Brucella Agar medium containing 5% defibrinated horse blood, 5 mg/L hemin, and 1 mg/L vitamin K. The resulting plates were inoculated with approximately 10^5 CFU per spot using a replicator and incubated anaerobically at 36 °C for 48 h.
as §2

[9] = test system: Propionibacterium acnes 55; assay: as above; type: cell-based; details: Cutibacterium acnes; P. acnes 55, anaerobic clinical isolate

## O=C(N[C@H](CO)[C@H](O)c1ccc([N+](=O)[O-])cc1)C(Cl)Cl [CLM, Chloramphenicol]
[1]
  MIC: 8 µg/mL (≈ 24.8 µM)
[2]
  MIC: 8 µg/mL (≈ 24.8 µM)
[3]
  MIC: 4 µg/mL (≈ 12.4 µM)
E. coli ΔtolC pERMZα
  MIC: 1.6 µg/mL (≈ 4.95 µM)
E. coli ΔtolC pErmC
  MIC: 1.6 µg/mL (≈ 4.95 µM)
[4]
  Fold increase in the MIC value on E. coli ΔtolC pErmCL-ErmC compared to E. coli ΔtolC: no changes in the MIC values
  MIC: 1.6 µg/mL (≈ 4.95 µM)
E. coli ΔtolC
  MIC: 1.6 µg/mL (≈ 4.95 µM)
[5]
  Relative luciferase activity (relative maximal rate of Fluc accumulation): 21%
[6]
  Ribosome stalling pattern on ermCL mRNA: strong ribosome stalling when the Ser codon (AGU) occupies the E-site of the ribosome

## CC[C@H]1OC(=O)[C@H](C)[C@@H](O[C@H]2C[C@@](C)(OC)[C@@H](O)[C@H](C)O2)[C@H](C)[C@@H](O[C@@H]2O[C@H](C)C[C@H](N(C)C)[C@H]2O)[C@](C)(O)C[C@@H](C)C(=O)[C@H](C)[C@@H](O)[C@]1(C)O [ERY, erythromycin]
E. coli ΔtolC pERMZα
  MIC: 1.6 µg/mL (≈ 2.18 µM)
E. coli ΔtolC pErmC
  MIC: > 200 µg/mL
[4]
  Fold increase in the MIC value on E. coli ΔtolC pErmCL-ErmC compared to E. coli ΔtolC: 16 fold
  MIC: 50 µg/mL (≈ 68.1 µM)
E. coli ΔtolC
  MIC: 3.1 µg/mL (≈ 4.22 µM)
[5]
  Relative luciferase activity (relative maximal rate of Fluc accumulation): 0.9%

## CC[C@H]1OC(=O)[C@H](C)[C@@H](O[C@H]2C[C@@](C)(OC)[C@@H](OC(=O)NCCN)[C@H](C)O2)[C@H](C)[C@@H](O[C@@H]2O[C@H](C)C[C@H](N(C)C)[C@H]2OC(C)=O)[C@](C)(O)C[C@@H](C)CN(C)[C@H](C)[C@H]2OC(=O)O[C@@]21C [compound 6, 2′-O-Acetyl-4′′-O-((2-aminoethyl)carbamoyl)-11,12-cyclic carbonate of azithromycin]
[1]
  MIC: > 32 µg/mL
[2]
  MIC: 32 µg/mL (≈ 35.4 µM)
[3]
  MIC: > 32 µg/mL
E. coli ΔtolC pERMZα
  MIC: 3.1 µg/mL (≈ 3.43 µM)
E. coli ΔtolC pErmC
  MIC: > 200 µg/mL
[4]
  MIC: 6.3 µg/mL (≈ 6.98 µM)
E. coli ΔtolC
  MIC: 3.1 µg/mL (≈ 3.43 µM)
E. coli ΔtolC; toward E. coli strains (Table 4)
  Times weaker than the parental antibiotic (azithromycin), MIC: 2–4 times
[5]
  Relative luciferase activity (relative maximal rate of Fluc accumulation): 46%
70S E. coli ribosomes
  Kd: 6.5 nM and 6 nM
[6]
  Ribosome stalling pattern on ermCL mRNA: premature ribosome stalling at the first Phe codon (UUU)

## Cc1ncc([N+](=O)[O-])n1CCO [MNZ, Metronidazole]
[2]
  MIC: > 32 µg/mL
[7]
  MIC: > 32 µg/mL
[3]
  MIC: > 32 µg/mL
[8]
  MIC: 8 µg/mL (≈ 46.7 µM)
[9]
  MIC: > 32 µg/mL
E. coli ΔtolC pERMZα
  MIC: > 200 µg/mL
E. coli ΔtolC pErmC
  MIC: > 200 µg/mL
[4]
  MIC: > 200 µg/mL
E. coli ΔtolC
  MIC: > 200 µg/mL
[5]; concentration of 50 μM (Figure 2B)
  Inhibition of protein synthesis in vitro: no inhibition was observed
